Assay results: PMC12348107, “Saponins from Oxybasis rubra (L.) S.Fuentes, Uotila & Borsh: Comparative Assessment of Cytotoxic Potential Against a Wide Panel of Cancer Cell Lines” (Molecules, 2025)
Where “and” joins values, the source holds several entries; their conditions need not be identical. Equal entries are not always repeated. Where two headings read alike, the source gives them in different places.

Tests used:
[1] = test system: WM793 primary melanoma cells; test: LDH cytotoxicity assay, WM793; type: cell-based; details: Homo sapiens, LDH test, read-out: Cytotoxic activity expressed as IC50
Experimental: (§1) The cytotoxic activity was tested on human cancer and normal cell lines, grouped in several panels: skin (malignant melanoma HTB-140, malignant melanoma A375, melanoma WM793, and normal keratinocytes HaCaT), prostate (prostate carcinoma DU-145, prostate carcinoma PC3, and prostate epithelial cells PNT2), thyroid (thyroid carcinoma FTC133, thyroid carcinoma, undifferentiated 8505C), gastrointestinal panel (hepatocellular carcinoma HepG2, colon adenocarcinoma Caco-2, and colon adenocarcinoma HT29), and single line of lung carcinoma A549. Cells were grown at standard conditions (37 °C, 5% CO2, relative humidity) and culture media (DMEM/F12 for PNT2, WM793, HT29, A549; DMEM Low Glucose for DU-145; DMEM High Glucose for A375, HaCaT, A549; MEM with NEAA for Caco-2), supplemented with 10% fetal bovine serum (FBS) and 1% antibiotic solution (10,000 U penicillin and 10 mg streptomycin/mL). All cell lines, cell culture media, and supplements were from Merck (Seelze, Germany).
(§2) Before the experiment, cells were seeded onto 96-well plates for 24 h, at a density of 1.5 × 10^4 cells/ well. Then the tested compounds (5–100 μg/mL) were added and incubated for 24 and 48 h. Cell viability was measured with the lactate dehydrogenase (LDH) assay by Clontech (Clontech, Mountain View, CA, USA), as described previously. The absorbance was measured at 490 nm using a Biotek Synergy microplate reader (BioTek Instruments Inc., Winooski, VT, USA). Cell viability was expressed as a percentage of dead cells. Each experiment was conducted in triplicate. Doxorubicin was used as a reference cytostatic.
(§3) The results were expressed as mean (±SD). Data were analyzed using Statistica v.13.3 (StatSoft, Tulsa, OK, USA). The IC50 values were calculated using OriginPro 2020b (64-bit) 9.7.5.184 (Academic) (OriginLab Corporation, Northampton, MA, USA). One-way analysis of variance (ANOVA) and the post-hoc Tukey multiple comparison test were used. The statistical significance was defined at the probability level of p < 0.05. Principal component analysis (PCA) and hierarchical cluster analysis (HCA) were performed using Statistica v.13.3 (StatSoft, Tulsa, OK, USA). Prior to PCA, the Bartlett’s sphericity test was conducted, and the Kaiser-Meyer-Olkin Measure of Sampling Adequacy index (KMO) was examined. In the simple model, for each compound tested (1–4), the cell lines were the cases, and the different concentrations of the compound were the parameters. This was followed by a PCA model in which the cell lines were the parameters, and the compounds (at different concentrations) were the cases. All PCA models were based on a correlation matrix. Hierarchical cluster analysis (CA) based on standardized data was performed using Ward’s method and Euclidean distance. The results were grouped based on Mojena’s rule.

[2] = test system: A375 malignant melanoma cells; test: LDH cytotoxicity assay, A375; type: cell-based; details: Homo sapiens, A-375, LDH test, read-out: Cytotoxic activity expressed as IC50
Experimental: as §1, §2, §3

[3] = test system: HT29 colon adenocarcinoma cells; test: LDH cytotoxicity assay, HT29; type: cell-based; details: Homo sapiens, HT-29, LDH test, read-out: Cytotoxic activity expressed as IC50
Experimental: as §1, §2, §3

[4] = test system: PC3 metastatic prostate carcinoma cells; test: LDH cytotoxicity assay, PC3; type: cell-based; details: Homo sapiens, LDH test, read-out: Cytotoxic activity expressed as IC50
Experimental: as §1, §2, §3

[5] = test system: DU-145 metastatic prostate carcinoma cells; test: LDH cytotoxicity assay, DU-145; type: cell-based, human; details: Homo sapiens, LDH test, read-out: Cytotoxic activity expressed as IC50
Experimental: as §1, §2, §3

[6] = test system: HTB-140 malignant melanoma cells; test: LDH cytotoxicity assay, HTB-140; type: cell-based; details: Homo sapiens, LDH test, read-out: Cytotoxic activity expressed as IC50
Experimental: as §1, §2, §3

[7] = test system: Caco-2 colon adenocarcinoma cells; test: LDH cytotoxicity assay, Caco-2; type: cell-based; details: Homo sapiens, LDH test, read-out: Cytotoxic activity expressed as IC50
Experimental: as §1, §2, §3

[8] = test system: 8505C undifferentiated thyroid carcinoma cells; test: LDH cytotoxicity assay, 8505C; type: cell-based; details: Homo sapiens, LDH test, read-out: Cytotoxic activity expressed as IC50
Experimental: as §1, §2, §3

[9] = test system: FTC133 follicular thyroid carcinoma cells; test: LDH cytotoxicity assay, FTC133; type: cell-based; details: Homo sapiens, FTC-133, LDH test, read-out: Cytotoxic activity expressed as IC50
Experimental: as §1, §2, §3

[10] = test system: HepG2 hepatocellular carcinoma cells; test: LDH cytotoxicity assay, HepG2; type: cell-based; details: Homo sapiens, LDH test, read-out: Cytotoxic activity expressed as IC50
Experimental: as §1, §2, §3

[11] = LDH cytotoxicity assay, HaCaT; type: cell-based, human; details: human, HaCaT normal keratinocytes, HaCaT normal cells, LDH test, read-out: Cytotoxic activity expressed as IC50; for IC50 at 24 h: 24 h incubation; for IC50 at 48 h: 48 h incubation
Experimental: as §1, §2, §3

[12] = LDH cytotoxicity assay, PNT2; type: cell-based, human; details: human, PNT2 prostate epithelial cells (normal), PNT2 normal cells, LDH test, read-out: Cytotoxic activity expressed as IC50; for IC50 at 24 h: 24 h incubation; for IC50 at 48 h: 48 h incubation
Experimental: as §1, §2, §3

[13] = test system: A549 lung carcinoma cells; test: LDH cytotoxicity assay, A549; type: cell-based, human; details: Homo sapiens, LDH test, read-out: Cytotoxic activity expressed as IC50
Experimental: as §1, §2, §3

[14] = test system: human cancer and normal cell lines; test: Cytotoxicity screening across the whole cell line panel; type: cell-based; details: all cell lines tested, 5–100 μg/mL, 24 and 48 h
Experimental: The cytotoxic activity was tested on human cancer and normal cell lines, grouped in several panels: skin (malignant melanoma HTB-140, malignant melanoma A375, melanoma WM793, and normal keratinocytes HaCaT), prostate (prostate carcinoma DU-145, prostate carcinoma PC3, and prostate epithelial cells PNT2), thyroid (thyroid carcinoma FTC133, thyroid carcinoma, undifferentiated 8505C), gastrointestinal panel (hepatocellular carcinoma HepG2, colon adenocarcinoma Caco-2, and colon adenocarcinoma HT29), and single line of lung carcinoma A549. […]
as §2, with “Then the tested compounds (5–100 μg/mL) were added and incubated for 24 and 48 h.” left out, “Each experiment was conducted in triplicate. Doxorubicin was used as a reference cytostatic.” left out
The results were expressed as mean (±SD). Data were analyzed using Statistica v.13.3 (StatSoft, Tulsa, OK, USA). The IC50 values were calculated using OriginPro 2020b (64-bit) 9.7.5.184 (Academic) (OriginLab Corporation, Northampton, MA, USA). […]

[15] = A549, 24 h, A549, 24 h incubation
[16] = A549, 48 h, A549, 48 h incubation

Compound	IC50 ([1]; WM793, 24 h incubation)	IC50 ([2]; A375, 24 h incubation)	IC50 ([3]; HT29, 24 h incubation)	IC50 ([4]; PC3, 24 h incubation)	IC50 ([5]; DU-145, 24 h incubation)	IC50 ([6]; HTB-140, 24 h incubation)	IC50 ([7]; Caco-2, 24 h incubation)	IC50 ([8]; 24 h incubation)	IC50 ([9]; FTC133, 24 h incubation)	IC50 ([10]; HepG2, 24 h incubation)	IC50 at 24 h [11]	IC50 at 24 h [12]	IC50 [13, 15]	IC50 ([1]; WM793, 48 h incubation)	IC50 ([2]; A375, 48 h incubation)	IC50 ([3]; HT29, 48 h incubation)	IC50 ([4]; PC3, 48 h incubation)	IC50 ([5]; DU-145, 48 h incubation)	IC50 ([6]; HTB-140, 48 h incubation)	IC50 ([7]; Caco-2, 48 h incubation)	also measured
COc1cccc2c1C(=O)c1c(O)c3c(c(O)c1C2=O)C[C@@](O)(C(=O)CO)C[C@@H]3O[C@H]1C[C@H](N)[C@H](O)[C@H](C)O1 [DOX, doxorubicin]	> 40 µg/mL	790 nM and 0.43 µg/mL	2.06 µM and 1.12 µg/mL	> 40 µg/mL	4.53 µM and 2.46 µg/mL	9.03 µM and 4.91 µg/mL	5.43 µM and 2.95 µg/mL	> 40 µg/mL	8.56 µM and 4.65 µg/mL	2.05 µM and 1.11 µg/mL	7.75 µM and 4.21 µg/mL	2.01 µM and 1.09 µg/mL	2.01 µM and 1.09 µg/mL	–	–	–	–	–	–	–	–
CC1(C)CC[C@]2(C(=O)O)CC[C@]3(C)C(=CC[C@@H]4[C@@]5(C)CC[C@H](O[C@@H]6O[C@H](CO)[C@@H](O)[C@H](O[C@@H]7O[C@H](CO)[C@@H](O)[C@H](O)[C@H]7O)[C@H]6O)[C@@](C)(CO)[C@@H]5CC[C@]43C)[C@@H]2C1 [Compound 1]	34.6 µM and 27.6 µg/mL	22.6 µM and 18 µg/mL	35.7 µM and 28.4 µg/mL	73.6 µM and 58.6 µg/mL	20.7 µM and 16.5 µg/mL	33 µM and 26.2 µg/mL	27.1 µM and 21.6 µg/mL	45.1 µM and 35.9 µg/mL	30.8 µM and 24.5 µg/mL	16.6 µM and 13.2 µg/mL	50.8 µM and 40.4 µg/mL	51.1 µM and 40.7 µg/mL	18.7 µM and 14.9 µg/mL	21.6 µM and 17.2 µg/mL	16 µM and 12.7 µg/mL	31.4 µM and 25 µg/mL	44.2 µM and 35.2 µg/mL	14.7 µM and 11.7 µg/mL	22.8 µM and 18.2 µg/mL	24.2 µM and 19.3 µg/mL	Overall cytotoxic activity across the panel, in words [14]: exhibited activity against all cell lines tested; IC50 ([8]; 48 h incubation): 32.4 µM and 25.8 µg/mL; IC50 ([9]; FTC133, 48 h incubation): 17.1 µM and 13.6 µg/mL; IC50 ([10]; HepG2, 48 h incubation): 13.6 µM and 10.8 µg/mL; IC50 at 48 h [11]: 33.9 µM and 27 µg/mL; IC50 at 48 h [12]: 42.8 µM and 34.1 µg/mL; IC50 [13, 16]: 14.8 µM and 11.8 µg/mL
CC1(C)CC[C@]2(C(=O)O[C@@H]3O[C@H](CO)[C@@H](O)[C@H](O)[C@H]3O)CC[C@]3(C)C(=CC[C@@H]4[C@@]5(C)CC[C@H](O)[C@@](C)(CO)[C@@H]5CC[C@]43C)[C@@H]2C1 [Compound 3, 28-O-β-D-glucopyranosyl hederagenin ester]	> 100 µg/mL	73.5 µM and 46.7 µg/mL	69.2 µM and 44 µg/mL	> 100 µg/mL	56.8 µM and 36.1 µg/mL	> 100 µg/mL	42.6 µM and 27 µg/mL	> 100 µg/mL	> 100 µg/mL	127 µM and 80.5 µg/mL	91.5 µM and 58.1 µg/mL	84.8 µM and 53.8 µg/mL	150 µM and 95.3 µg/mL	> 100 µg/mL	58 µM and 36.8 µg/mL	60 µM and 38.1 µg/mL	118 µM and 74.8 µg/mL	42.6 µM and 27 µg/mL	155 µM and 98.2 µg/mL	38 µM and 24.2 µg/mL	IC50 ([8]; 48 h incubation): > 100 µg/mL; IC50 ([9]; FTC133, 48 h incubation): > 100 µg/mL; IC50 ([10]; HepG2, 48 h incubation): 107 µM and 68 µg/mL; IC50 at 48 h [11]: 68.2 µM and 43.3 µg/mL; IC50 at 48 h [12]: 59.5 µM and 37.8 µg/mL; IC50 [13, 16]: 73.2 µM and 46.5 µg/mL
CC1(C)CC[C@]2(C(=O)O)CC[C@]3(C)C(=CC[C@@H]4[C@@]5(C)CC[C@H](O)[C@@](C)(CO)[C@@H]5CC[C@]43C)[C@@H]2C1 [Compound 4, hederagenin]	> 100 µg/mL	> 100 µg/mL	> 100 µg/mL	> 100 µg/mL	109 µM and 51.5 µg/mL	> 100 µg/mL	191 µM and 90.1 µg/mL	> 100 µg/mL	> 100 µg/mL	> 100 µg/mL	> 100 µg/mL	195 µM and 92 µg/mL	> 100 µg/mL	> 100 µg/mL	> 100 µg/mL	191 µM and 90.3 µg/mL	164 µM and 77.7 µg/mL	42.9 µM and 20.3 µg/mL	> 100 µg/mL	158 µM and 74.9 µg/mL	IC50 ([8]; 48 h incubation): > 100 µg/mL; IC50 ([9]; FTC133, 48 h incubation): > 100 µg/mL; IC50 ([10]; HepG2, 48 h incubation): > 100 µg/mL; IC50 at 48 h [11]: > 100 µg/mL; IC50 at 48 h [12]: 159 µM and 75.1 µg/mL; IC50 [13, 16]: 208 µM and 98.2 µg/mL
